Reference: patent US20130217664A1, “NOVEL COMPOUNDS USEFUL FOR THE TREATMENT OF DEGENERATIVE AND INFLAMMATORY DISEASES” (priority 2012, published 2013)

Tests used:
human JAK1 = biological target: T1, human JAK1 (Homo sapiens, UniProt P23458); test: JAK1 inhibition assay (polyGT substrate / Ulight-JAK1 peptide); format: biochemical; details: recombinant human JAK1 catalytic domain; polyGT or Ulight-JAK1 peptide assay
T1 construct: catalytic domain, amino acids 866-1154; catalog number PV4774; purchased Invitrogen PV4774
Summary of the method: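 Two formats. PolyGT radiometric: 45 min at 30 °C, stopped with phosphoric acid, counted as cpm. Ulight-JAK1 peptide: 60 min at room temperature, stopped with Eu-anti-phosphotyrosine/EDTA, read as RFU. Percent inhibition normalised to vehicle and 10 μM staurosporine.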

human JAK3 = biological target: T2, human JAK3 (Homo sapiens, UniProt P52333); test: JAK3 inhibition assay; format: biochemical; details: recombinant human JAK3 catalytic domain; polyGT substrate
T2 construct: catalytic domain (amino acids 781-1124; catalog number PV3855); purchased Invitrogen PV3855
Summary of the method: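 Radiometric kinase assay: 0.5 ng JAK3 with 2.5 μg polyGT in Tris pH 7.5/MgCl2 buffer, 1 μM ATP plus 0.25 μCi 33P-γ-ATP, 1% DMSO, 45 min at 30 °C, stopped with phosphoric acid.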

human TYK2 = biological target: T3, human TYK2 (Homo sapiens, UniProt P29597); test: TYK2 inhibition assay; format: biochemical; details: recombinant human TYK2 catalytic domain, polyGT substrate
T3 construct: catalytic domain (amino acids 871-1187; catalog number 08-147); purchased Carna Biosciences 08-147
T3 sequence (P29597 871-1187): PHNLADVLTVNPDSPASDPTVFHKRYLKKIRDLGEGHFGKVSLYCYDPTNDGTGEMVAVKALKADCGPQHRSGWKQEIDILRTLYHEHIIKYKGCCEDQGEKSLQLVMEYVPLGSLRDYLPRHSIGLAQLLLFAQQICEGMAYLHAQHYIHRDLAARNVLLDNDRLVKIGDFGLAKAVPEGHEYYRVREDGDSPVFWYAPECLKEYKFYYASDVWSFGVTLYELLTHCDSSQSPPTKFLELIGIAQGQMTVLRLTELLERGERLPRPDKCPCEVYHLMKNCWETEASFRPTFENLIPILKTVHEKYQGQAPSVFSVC
Summary of the method: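 Radiometric kinase reaction run 90 min at 30 °C, stopped with phosphoric acid, washed and scintillation-counted.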

[1] = tested on: pSTAT1(2)-luciferase reporter in HeLa cells triggered with human OSM; test: JAK-STAT signalling assay; format: cell-based; details: Homo sapiens, HeLa, HeLa cells, pSTAT1(2)-luciferase reporter, human OSM 33 ng/mL; read-out: JAK-STAT IC50
Method: JAK-STAT Signalling Assay
HeLa cells were maintained in Dulbecco's Modified Eagle's Medium (DMEM) containing 10% heat inactivated fetal calf serum, 100 U/mL penicillin and 100 μg/mL streptomycin. HeLa cells were used at 70% confluence for transfection. 20,000 cells in 87 μL cell culture medium were transiently transfected with 40 ng pSTAT1(2)-luciferase reporter (Panomics), 8 ng of LacZ reporter as internal control reporter and 52 ng of pBSK using 0.32 μL Jet-PEI (Polyplus) as transfection reagent per well in 96-well plate format. After overnight incubation at 37° C., 5% CO2, transfection medium was removed. 81 μL of DMEM+1.5% heat inactivated fetal calf serum was added. 9 μL compound at 10× concentration was added for 60 min and then 10 μL of human OSM (Peprotech) at 33 ng/mL final concentration.
After overnight incubation at 37° C., 5% CO2 cells were lysed by adding 100 μL lysis buffer/well (PBS, 0.9 mM CaCl2, 0.5 mM MgCl2, 10% Trehalose, 0.05% Tergitol NP9, 0.3% BSA).
40 μL of cell lysate was used to read β-galactosidase activity by adding 180 μL β-Gal solution (30 μL ONPG 4 mg/mL+150 μL β-Galactosidase buffer (0.06 M Na2HPO4, 0.04 M NaH2PO4, 1 mM MgCl2)) for 20 min.
Luciferase activity was measured using 40 μL cell lysate plus 40 μL of Steadylite as described by the manufacturer (Perkin Elmer), on the Envision (Perkin Elmer).
The positive and negative controls were used to calculate z′ and ‘percent inhibition’ (PIN) values.
Percentage inhibition=((fluorescence determined in the presence of vehicle−fluorescence determined for sample with test compound present)divided by(fluorescence determined in the presence of vehicle−fluorescence determined for sample without trigger))*100.
PIN values were plotted for compounds tested in dose-response and EC50 values were derived.

human JAK2 = biological target: T4, human JAK2 (Homo sapiens, UniProt O60674); test: JAK2 inhibition assay (polyGT substrate / Ulight-JAK1 peptide); format: biochemical; details: recombinant human JAK2 catalytic domain; polyGT or Ulight-JAK1 peptide assay
T4 construct: catalytic domain (amino acids 808-1132; catalog number PV4210); GST; purchased Invitrogen PV4210
Summary of the method: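 Radiometric: 0.025 mU JAK2 with 2.5 μg polyGT, 1 μM ATP plus ^33P-ATP in MOPS pH 7.5 buffer, 1% DMSO, 90 min at 30° C.; filter counting. Alternative TR-FRET format with Ulight-JAK1 peptide, 60 min at room temperature, Eu-anti-phosphotyrosine detection.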

T2 sequence (P52333 781-1124): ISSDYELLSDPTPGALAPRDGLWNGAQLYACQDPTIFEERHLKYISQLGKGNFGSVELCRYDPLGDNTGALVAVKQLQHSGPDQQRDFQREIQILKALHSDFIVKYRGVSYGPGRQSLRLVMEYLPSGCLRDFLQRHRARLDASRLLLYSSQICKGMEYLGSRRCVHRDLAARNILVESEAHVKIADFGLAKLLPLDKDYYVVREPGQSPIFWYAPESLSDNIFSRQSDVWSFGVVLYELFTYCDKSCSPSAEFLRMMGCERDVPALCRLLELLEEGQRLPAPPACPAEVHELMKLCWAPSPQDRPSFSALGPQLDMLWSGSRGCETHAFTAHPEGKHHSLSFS
T4 sequence (O60674 808-1132): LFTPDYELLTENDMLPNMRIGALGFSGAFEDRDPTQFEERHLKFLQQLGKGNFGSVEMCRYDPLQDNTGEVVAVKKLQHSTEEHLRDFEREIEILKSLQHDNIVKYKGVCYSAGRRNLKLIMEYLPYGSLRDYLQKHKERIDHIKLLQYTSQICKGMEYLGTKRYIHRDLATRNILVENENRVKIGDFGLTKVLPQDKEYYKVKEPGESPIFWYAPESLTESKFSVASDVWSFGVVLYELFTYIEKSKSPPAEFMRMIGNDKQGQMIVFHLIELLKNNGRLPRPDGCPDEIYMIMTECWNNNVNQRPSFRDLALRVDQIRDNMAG
T1 sequence (P23458 866-1154): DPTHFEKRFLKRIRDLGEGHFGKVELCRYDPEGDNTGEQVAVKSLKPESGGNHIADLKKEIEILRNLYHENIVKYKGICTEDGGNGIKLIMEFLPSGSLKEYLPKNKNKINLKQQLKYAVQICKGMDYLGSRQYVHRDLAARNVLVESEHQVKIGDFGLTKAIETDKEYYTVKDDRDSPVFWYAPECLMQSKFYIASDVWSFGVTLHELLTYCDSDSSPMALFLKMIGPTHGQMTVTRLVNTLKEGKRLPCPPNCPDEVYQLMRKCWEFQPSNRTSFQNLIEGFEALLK

Row | SMILES | IC50 (human JAK1) | IC50 (human JAK3) | IC50 (human TYK2) | IC50 [1] | IC50 (human JAK2)
1 | CCc1cc(-c2cnc(N(C)C)nc2)ccc1N(C)c1cc2c(cn1)ncn2C [Compound 129, N-(4-(2-(dimethylamino)pyrimidin-5-yl)-2-ethylphenyl)-N,1-dimethyl-1H-imidazo[4,5-c]pyridin-6-amine] | 0.01 to 100 nM | > 1000 nM | 101 to 500 nM | > 1000 nM | 
2 | CCc1cc(-c2ccc(O)nc2)ccc1N(C)c1cc2c(cn1)ncn2C [Compound 132, 5-(3-Ethyl-4-(methyl(1-methyl-1H-imidazo[4,5-c]pyridin-6-yl)amino)phenyl)pyridin-2-ol] | 0.01 to 100 nM | 101 to 500 nM | 0.01 to 100 nM | 501 to 1000 nM | 
3 | CCc1cc(CNC)ccc1N(C)c1cc2c(cn1)ncn2C [Compound 135, N-(2-ethyl-4-((methylamino)methyl)phenyl)-N,1-dimethyl-1H-imidazo[4,5-c]pyridin-6-amine] | 0.01 to 100 nM | > 1000 nM | > 1000 nM | > 1000 nM | 
4 | CCc1cc(CN2CCS(=O)(=O)CC2)ccc1N(C)c1cc2c(cn1)ncn2C [Compound 143, [4-(1,1-Dioxothiomorpholin-4-ylmethyl)-2-ethyl-phenyl]-methyl-(1-methyl-1H-imidazo[4,5-c]pyridin-6-yl)-amine] | 0.01 to 100 nM | 501 to 1000 nM | 501 to 1000 nM | > 1000 nM | 
5 | CCc1cc(-c2noc(CC#N)n2)ccc1N(C)c1cc2c(cn1)ncn2C [Compound 148, 2-(3-(3-ethyl-4-(methyl(1-methyl-1H-imidazo[4,5-c]pyridin-6-yl)amino)phenyl)-1,2,4-oxadiazol-5-yl)acetonitrile] | 0.01 to 100 nM | 501 to 1000 nM | 0.01 to 100 nM | 501 to 1000 nM | 
6 | CCc1cc(CNCC#N)ccc1N(C)c1cc2c(cn1)ncn2C [Compound 149, 2-(3-ethyl-4-(methyl(1-methyl-1H-imidazo[4,5-c]pyridin-6-yl)amino)benzylamino) acetonitrile] | 0.01 to 100 nM | 101 to 500 nM | 0.01 to 100 nM | > 1000 nM | 
7 | CCc1cc(-c2cscn2)ccc1N(C)c1cc2c(cn1)ncn2C [Compound 150, N-(2-ethyl-4-(thiazol-4-yl)phenyl)-N,1-dimethyl-1H-imidazo[4,5-c]pyridin-6-amine] | 0.01 to 100 nM | 101 to 500 nM | 0.01 to 100 nM | 1 to 500 nM | 
8 | CCc1cc(CNC(=O)OC(C)(C)C)ccc1N(C)c1cc2c(cn1)ncn2C [Compound 252, tert-Butyl 3-ethyl-4-(methyl(1-methyl-1H-imidazo[4,5-c]pyridin-6-yl)amino)benzylcarbamate] |  |  |  | > 1000 nM | 
9 | CCc1ccccc1N(CCN1CCCC1)c1cc2c(cn1)ncn2C [Compound 459, N-(2-ethylphenyl)-1-methyl-N-(2-(pyrrolidin-1-yl)ethyl)-1H-imidazo[4,5-c]pyridin-6-amine] | 101 to 500 nM | > 1000 nM | > 1000 nM |  | > 1000 nM
10 | CCc1ccccc1N(CCN1CCOCC1)c1cc2c(cn1)ncn2C [Compound 460, N-(2-ethylphenyl)-1-methyl-N-(2-morpholinoethyl)-1H-imidazo[4,5-c]pyridin-6-amine] | 101 to 500 nM | > 1000 nM | > 1000 nM |  | > 1000 nM
11 | CCc1ccccc1N(Cc1cccnc1)c1cc2c(cn1)ncn2C [Compound 462, N-(2-ethylphenyl)-1-methyl-N-(pyridin-3-ylmethyl)-1H-imidazo[4,5-c]pyridin-6-amine] | 501 to 1000 nM | > 1000 nM | > 1000 nM |  | > 1000 nM

The remaining lines, values ahead:

Row | IC50 (human JAK1) | IC50 (human JAK3) | IC50 (human TYK2) | IC50 [1] | IC50 (human JAK2) | SMILES
12 | 0.01 to 100 nM | > 1000 nM | 101 to 500 nM | 501 to 1000 nM |  | CCc1cc(-c2ccc(C)nc2)ccc1N(C)c1cc2c(cn1)ncn2C [Compound 131, N-(2-ethyl-4-(6-methylpyridin-3-yl)phenyl)-N,1-dimethyl-1H-imidazo[4,5-c]pyridin-6-amine]
13 | 0.01 to 100 nM | 501 to 1000 nM | 0.01 to 100 nM | 501 to 1000 nM |  | CCc1cc(CN2CCN(S(C)(=O)=O)CC2)ccc1N(C)c1cc2c(cn1)ncn2C [Compound 136, N-(2-Ethyl-4-((4-(methylsulfonyl)piperazin-1-yl)methyl)phenyl)-N,1-dimethyl-1H-imidazo[4,5-c]pyridin-6-amine]
14 | 0.01 to 100 nM | 101 to 500 nM | 0.01 to 100 nM | 501 to 1000 nM |  | CCc1cc(-c2cnn(Cc3ccccc3)c2)ccc1N(C)c1cc2c(cn1)ncn2C [Compound 139, N-(4-(1-benzyl-1H-pyrazol-4-yl)-2-ethylphenyl)-N,1-dimethyl-1H-imidazo[4,5-c]pyridin-6-amine]
15 | 0.01 to 100 nM | > 1000 nM | 101 to 500 nM | > 1000 nM |  | CCc1cc(-c2cnc(C(C)C)nc2)ccc1N(C)c1cc2c(cn1)ncn2C [Compound 140, N-(2-ethyl-4-(2-isopropylpyrimidin-5-yl)phenyl)-N,1-dimethyl-1H-imidazo[4,5-c]pyridin-6-amine]
16 | 101 to 500 nM | > 1000 nM | > 1000 nM | > 1000 nM |  | CCc1cc(CN2CCN(C)CC2)ccc1N(C)c1cc2c(cn1)ncn2C [Compound 141, N-(2-ethyl-4-((4-methylpiperazin-1-yl)methyl)phenyl)-N,1-dimethyl-1H-imidazo[4,5-c]pyridin-6-amine]
17 | 0.01 to 100 nM | > 1000 nM | 101 to 500 nM | 501 to 1000 nM |  | CCc1cc(CN2CCOCC2)ccc1N(C)c1cc2c(cn1)ncn2C [Compound 142, N-(2-ethyl-4-(morpholinomethyl)phenyl)-N,1-dimethyl-1H-imidazo[4,5-c]pyridin-6-amine]
18 | 0.01 to 100 nM | 501 to 1000 nM | 0.01 to 100 nM | > 1000 nM |  | CCc1cc(-c2cnccn2)ccc1N(C)c1cc2c(cn1)ncn2C [Compound 144, N-(2-ethyl-4-(pyrazin-2-yl)phenyl)-N,1-dimethyl-1H-imidazo[4,5-c]pyridin-6-amine]
19 | 0.01 to 100 nM | > 1000 nM | 0.01 to 100 nM | 501 to 1000 nM |  | CCc1cc(-c2noc(C)n2)ccc1N(C)c1cc2c(cn1)ncn2C [Compound 147, N-(2-ethyl-4-(5-methyl-1,2,4-oxadiazol-3-yl)phenyl)-N,1-dimethyl-1H-imidazo[4,5-c]pyridin-6-amine]
20 |  |  |  | > 1000 nM |  | CCc1cc(-c2nnc(N)s2)ccc1N(C)c1cc2c(cn1)ncn2C [Compound 193, 5-(3-Ethyl-4-(methyl(1-methyl-1H-imidazo[4,5-c]pyridin-6-yl)amino)phenyl)-1,3,4-thiadiazol-2-amine]
21 | > 1000 nM | > 1000 nM | > 1000 nM |  | > 1000 nM | CCc1ccccc1N(Cc1ccccn1)c1cc2c(cn1)ncn2C [Compound 461, N-(2-ethylphenyl)-1-methyl-N-(pyridin-2-ylmethyl)-1H-imidazo[4,5-c]pyridin-6-amine]
